Data as given in patent US12209102B2, “Heterocyclic compounds and uses thereof” (Kumquat Biosciences Inc., priority 2022, dated 2025).

Key:
GP2D cells = assay: Ras cellular assay, growth of cells with K-Ras G12D mutation (CellTiter-Glo); format: cell-based; conditions: cell growth, Example 9, G12D mutation, read-out: IC50 against GP2D cells
K-Ras G12D = molecular target: T1, K-Ras G12D (Homo sapiens, UniProt P01116, G12D); assay: HTRF resonance energy transfer assay, K-Ras G12D / SOS1 interaction; format: biochemical; conditions: HTRF assay of Example 5; read-out: IC50 against K-Ras G12D
T1 construct: made in house; host or cells: E. coli BL21 (DE3)
T1 sequence (P01116 1-188 isoform P01116-2 G12D): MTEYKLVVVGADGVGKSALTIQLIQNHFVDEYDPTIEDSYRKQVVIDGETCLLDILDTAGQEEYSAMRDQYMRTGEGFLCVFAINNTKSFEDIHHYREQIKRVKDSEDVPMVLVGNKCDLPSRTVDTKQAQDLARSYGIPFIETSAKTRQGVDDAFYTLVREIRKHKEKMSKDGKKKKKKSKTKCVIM
Summary of the method: (§1)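 Read-out: HTRF 665/620 nm ratio (excitation 337 nm) after roughly 10 min or longer incubation, used to derive IC50. Donor anti-GST-Eu on GST-K-Ras; acceptor anti-6His-XL665 on His-hSOS1. Duplicate dose series from 10 μM down to 0.01 μM.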

K-Ras WT = molecular target: T2, K-Ras WT (Homo sapiens, UniProt P01116); assay: HTRF resonance energy transfer assay, K-Ras WT / SOS1 interaction; format: biochemical; conditions: HTRF assay of Example 5; read-out: IC50 against K-Ras WT
T2 construct: made in house; host or cells: E. coli BL21 (DE3)
T2 sequence (P01116 1-188 isoform P01116-2): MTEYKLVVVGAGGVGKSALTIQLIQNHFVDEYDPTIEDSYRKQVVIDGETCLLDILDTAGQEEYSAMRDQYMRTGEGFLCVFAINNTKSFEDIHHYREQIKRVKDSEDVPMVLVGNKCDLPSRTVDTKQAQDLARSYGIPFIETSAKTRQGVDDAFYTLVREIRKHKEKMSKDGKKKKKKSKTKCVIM
Summary of the method: as §1

K-Ras G12S = molecular target: T3, K-Ras G12S (Homo sapiens, UniProt P01116, G12S); assay: HTRF resonance energy transfer assay, K-Ras G12S / SOS1 interaction; format: biochemical; conditions: HTRF assay of Example 5; read-out: IC50 against K-Ras G12S
T3 construct: made in house; host or cells: E. coli BL21 (DE3)
T3 sequence (P01116 1-188 isoform P01116-2 G12S): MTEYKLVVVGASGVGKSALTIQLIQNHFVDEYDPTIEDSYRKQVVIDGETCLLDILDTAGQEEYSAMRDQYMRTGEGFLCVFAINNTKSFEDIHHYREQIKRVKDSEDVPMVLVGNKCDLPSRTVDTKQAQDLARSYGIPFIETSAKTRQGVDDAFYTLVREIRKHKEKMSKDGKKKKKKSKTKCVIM
Summary of the method: as §1

A549 cells = assay: Ras cellular assay, growth of cells with K-Ras G12S mutation (CellTiter-Glo); format: cell-based; conditions: Homo sapiens, cell growth, Example 9, G12S mutation, read-out: IC50 against A549 cells
Summary of the method: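 A549 cells (K-Ras G12S) in RPMI-1640 with 10% heat-inactivated FBS, seeded e.g. 800 per well in standard or ultra-low-attachment 384-well plates, treated next day with a dilution series (e.g. 10-point, 3-fold). Viability by CellTiter-Glo luminescence about 6 days later; IC50 from four-parameter fit.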

SW620 cells = assay: Ras cellular assay, growth of cells with K-Ras G12V mutation (CellTiter-Glo); format: cell-based; conditions: Homo sapiens, SW-620; cell growth, Example 9, G12V mutation; read-out: IC50 against SW620 cells
Summary of the method: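 SW620 (K-Ras G12V) cells, e.g. 800/well in RPMI-1640 with 10% heat-inactivated FBS on standard or ultra-low attachment plates, were dosed the day after plating with e.g. a 10-point 3-fold series. Viability by CellTiter-Glo luminescence about 6 days later; IC50 from four-parameter fit.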

K-Ras G12V = molecular target: T4, K-Ras G12V (Homo sapiens, UniProt P01116, G12V); assay: HTRF resonance energy transfer assay, K-Ras G12V / SOS1 interaction; format: biochemical; conditions: HTRF assay of Example 5; read-out: IC50 against K-Ras G12V
T4 construct: made in house; host or cells: E. coli BL21 (DE3)
T4 sequence (P01116 1-188 isoform P01116-2 G12V): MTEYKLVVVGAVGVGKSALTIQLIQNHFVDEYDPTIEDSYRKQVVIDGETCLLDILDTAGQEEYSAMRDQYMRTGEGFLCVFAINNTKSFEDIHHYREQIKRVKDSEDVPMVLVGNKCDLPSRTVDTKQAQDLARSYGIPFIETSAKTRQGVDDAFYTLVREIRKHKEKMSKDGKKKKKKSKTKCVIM
Summary of the method: as §1

Row | SMILES | IC50 (K-Ras G12D) | IC50 (K-Ras WT) | IC50 (K-Ras G12S) | IC50 (A549 cells) | IC50 (SW620 cells) | IC50 (K-Ras G12V) | IC50 (GP2D cells)
1 | COC1CC(C(=O)N2CCC(N3CCOc4c(Cl)c(-c5ccc(F)c6sc(N)c(C#N)c56)c(F)c5nc(OC[C@@]67CCCN6C[C@H](F)C7)nc3c45)C2)C1 (stereo partly drawn) [Compound 881, 2-amino-4-(8-chloro-10-fluoro-2-(((2R,7aS)-2-fluorotetrahydro-1H-pyrrolizin-7a(5H)-yl)methoxy)-4-(1-(3-methoxycyclobutane-1-carbonyl)pyrrolidin-3-yl)-5,6-dihydro-4H-[1,4]oxazepino[5,6,7-de]quinazolin-9-yl)-7-fluorobenzo[b]thiophene-3-carbonitrile] | < 100 nM | < 100 nM | < 100 nM | < 5000 nM | < 5000 nM | < 100 nM | < 500 nM
2 | CC1COc2c(Cl)c(-c3ccc(F)c4sc(N)c(C#N)c34)c(F)c3nc(OC[C@@]45CCCN4C[C@H](F)C5)nc(c23)N1[C@@H]1CCOC1 (stereo partly drawn) [Compound 888, 2-amino-4-(8-chloro-10-fluoro-2-(((2R,7aS)-2-fluorotetrahydro-1H-pyrrolizin-7a(5H)-yl)methoxy)-5-methyl-4-((R)-tetrahydrofuran-3-yl)-5,6-dihydro-4H-[1,4]oxazepino[5,6,7-de]quinazolin-9-yl)-7-fluorobenzo[b]thiophene-3-carbonitrile] | < 100 nM | < 100 nM | < 100 nM | < 5000 nM | < 5000 nM | < 100 nM | < 500 nM
3 | N#Cc1c(N)sc2c(F)ccc(-c3c(Cl)c4c5c(nc(OC[C@@]67CCCN6C[C@H](F)C7)nc5c3F)N(C3CC5CCC3N5C=O)CCO4)c12 (stereo partly drawn) [Compound 892, 2-amino-4-(8-chloro-10-fluoro-2-(((2R,7aS)-2-fluorotetrahydro-1H-pyrrolizin-7a(5H)-yl)methoxy)-4-(7-formyl-7-azabicyclo[2.2.1]heptan-2-yl)-5,6-dihydro-4H-[1,4]oxazepino[5,6,7-de]quinazolin-9-yl)-7-fluorobenzo[b]thiophene-3-carbonitrile] | < 100 nM | < 100 nM | < 100 nM | < 5000 nM | < 5000 nM | < 100 nM | < 500 nM
4 | N#Cc1c(N)sc2c(F)ccc(-c3c(Cl)c4c5c(nc(OC[C@@]67CCCN6C[C@H](F)C7)nc5c3F)N(C3CCn5nccc5C3)CCO4)c12 (stereo partly drawn) [Compound 893, 2-amino-4-(8-chloro-10-fluoro-2-(((2R,7aS)-2-fluorotetrahydro-1H-pyrrolizin-7a(5H)-yl)methoxy)-4-(4,5,6,7-tetrahydropyrazolo[1,5-a]pyridin-5-yl)-5,6-dihydro-4H-[1,4]oxazepino[5,6,7-de]quinazolin-9-yl)-7-fluorobenzo[b]thiophene-3-carbonitrile] | < 100 nM | < 100 nM | < 100 nM | < 5000 nM | < 5000 nM | < 100 nM | < 500 nM
5 | CN1c2nc(OC[C@@]34CCCN3C[C@H](F)C4)nc3c(F)c(-c4ccc(F)c5sc(N)c(C#N)c45)c(Cl)c(c23)OCC1CO (stereo partly drawn) [Compound 900, 2-amino-4-(8-chloro-10-fluoro-2-(((2R,7aS)-2-fluorotetrahydro-1H-pyrrolizin-7a(5H)-yl)methoxy)-5-(hydroxymethyl)-4-methyl-5,6-dihydro-4H-[1,4]oxazepino[5,6,7-de]quinazolin-9-yl)-7-fluorobenzo[b]thiophene-3-carbonitrile] | < 100 nM | < 100 nM | < 100 nM | < 5000 nM | < 5000 nM | < 100 nM | < 500 nM
6 | N#Cc1c(N)sc2c(F)ccc(-c3c(Cl)c4c5c(nc(OC[C@@]67CCCN6C[C@H](F)C7)nc5c3F)N(CC(F)F)[C@@H](CN)CO4)c12 [Compound 914, 2-amino-4-((5S)-5-(aminomethyl)-8-chloro-4-(2,2-difluoroethyl)-10-fluoro-2-(((2R,7aS)-2-fluorotetrahydro-1H-pyrrolizin-7a(5H)-yl)methoxy)-5,6-dihydro-4H-[1,4]oxazepino[5,6,7-de]quinazolin-9-yl)-7-fluorobenzo[b]thiophene-3-carbonitrile] | < 100 nM | < 100 nM | < 100 nM | < 5000 nM | < 5000 nM | < 100 nM | < 500 nM
7 | N#Cc1c(N)sc2c(F)ccc(-c3c(Cl)c4c5c(nc(OC[C@@]67CCCN6C[C@H](F)C7)nc5c3F)N(C3CCN(C(=O)[C@@H]5N[C@H]5C5CC5)C3)CCO4)c12 (stereo partly drawn) [Compound 915, 2-amino-4-(8-chloro-4-(1-((2R,3S)-3-cyclopropylaziridine-2-carbonyl)pyrrolidin-3-yl)-10-fluoro-2-(((2R,7aS)-2-fluorotetrahydro-1H-pyrrolizin-7a(5H)-yl)methoxy)-5,6-dihydro-4H-[1,4]oxazepino[5,6,7-de]quinazolin-9-yl)-7-fluorobenzo[b]thiophene-3-carbonitrile] | < 100 nM | < 100 nM | < 100 nM | < 5000 nM | < 5000 nM | < 100 nM | < 500 nM
8 | N#Cc1c(N)sc2c(F)ccc(-c3c(Cl)c4c5c(nc(OC[C@@]67CCCN6C[C@H](F)C7)nc5c3F)N(C3CCN(C(=O)C5C6COCC65)C3)CCO4)c12 (stereo partly drawn) [Compound 916, 4-(4-(1-(3-oxabicyclo[3.1.0]hexane-6-carbonyl)pyrrolidin-3-yl)-8-chloro-10-fluoro-2-(((2R,7aS)-2-fluorotetrahydro-1H-pyrrolizin-7a(5H)-yl)methoxy)-5,6-dihydro-4H-[1,4]oxazepino[5,6,7-de]quinazolin-9-yl)-2-amino-7-fluorobenzo[b]thiophene-3-carbonitrile] | < 100 nM | < 100 nM | < 100 nM | < 5000 nM | < 5000 nM | < 100 nM | < 500 nM

Now from value to compound, other results behind:

Row | IC50 (K-Ras G12D) | IC50 (K-Ras WT) | IC50 (K-Ras G12S) | IC50 (A549 cells) | IC50 (SW620 cells) | IC50 (K-Ras G12V) | SMILES | IC50 (GP2D cells)
9 | < 100 nM | < 100 nM | < 100 nM | < 5000 nM | < 5000 nM | < 100 nM | CC(C)[C@H]1COc2c(Cl)c(-c3ccc(F)c4sc(N)c(C#N)c34)c(F)c3nc(OC[C@@]45CCCN4C[C@H](F)C5)nc(c23)N1CC(F)F [Compound 884, 2-amino-4-((5S)-8-chloro-4-(2,2-difluoroethyl)-10-fluoro-2-(((2R,7aS)-2-fluorotetrahydro-1H-pyrrolizin-7a(5H)-yl)methoxy)-5-isopropyl-5,6-dihydro-4H-[1,4]oxazepino[5,6,7-de]quinazolin-9-yl)-7-fluorobenzo[b]thiophene-3-carbonitrile] | < 500 nM
10 | < 100 nM | < 100 nM | < 100 nM | < 5000 nM | < 5000 nM | < 100 nM | N#Cc1c(N)sc2c(F)ccc(-c3c(Cl)c4c5c(nc(OC[C@@]67CCCN6C[C@H](F)C7)nc5c3F)N(C3CC3)CCO4)c12 [Compound 891, 2-amino-4-(8-chloro-4-cyclopropyl-10-fluoro-2-(((2R,7aS)-2-fluorotetrahydro-1H-pyrrolizin-7a(5H)-yl)methoxy)-5,6-dihydro-4H-[1,4]oxazepino[5,6,7-de]quinazolin-9-yl)-7-fluorobenzo[b]thiophene-3-carbonitrile] | < 500 nM
11 | < 100 nM | < 100 nM | < 100 nM | < 5000 nM | < 5000 nM | < 100 nM | C[C@H](Oc1nc2c3c(c(Cl)c(-c4ccc(F)c5sc(N)c(C#N)c45)c(F)c3n1)OCCN2CC(F)F)[C@@H]1CCCN1C [Compound 901, 2-amino-4-(8-chloro-4-(2,2-difluoroethyl)-10-fluoro-2-((S)-1-((S)-1-methylpyrrolidin-2-yl)ethoxy)-5,6-dihydro-4H-[1,4]oxazepino[5,6,7-de]quinazolin-9-yl)-7-fluorobenzo[b]thiophene-3-carbonitrile] | < 500 nM
12 | < 100 nM | < 100 nM | < 100 nM | < 5000 nM | < 5000 nM | < 100 nM | CN1CCC(N2CCOc3c(Cl)c(-c4ccc(F)c5sc(N)c(C#N)c45)c(F)c4nc(OC[C@@]56CCCN5C[C@H](F)C6)nc2c34)C1 (stereo partly drawn) [Compound 921, 2-amino-4-(8-chloro-10-fluoro-2-(((2R,7aS)-2-fluorotetrahydro-1H-pyrrolizin-7a(5H)-yl)methoxy)-4-(1-methylpyrrolidin-3-yl)-5,6-dihydro-4H-[1,4]oxazepino[5,6,7-de]quinazolin-9-yl)-7-fluorobenzo[b]thiophene-3-carbonitrile] | < 500 nM
